Columns and labels:
Mus musculus [1] = assay: In vivo inhibition of BACE1 in po dosed Crl:CD1(ICR) mouse assessed as reduction in amyloidbeta level in brain after 2 to 6 hrs by ELISA; format: functional, organism-based
[2] = Fraction unbound in dog plasma after 24 hrs by equilibrium dialysis based LC-MS/MS analysis; format: ADME, cell-free, Canis lupus familiaris
[3] = Tmax in Cynomolgus monkey at 2.5 mg/kg, po by LC/MS/MS analysis; format: ADME, organism-based, Macaca fascicularis; settings: in vivo
[4] = Half life in mouse at 0.5 mg/kg, iv; format: ADME, organism-based; settings: in vivo
[5] = Metabolic stability in dog hepatocytes at 2 uM incubated for 2 hr; format: ADME, cell-based, Canis lupus familiaris, Hepatocyte; settings: read-out: Stability
[6] = Unbound CSF to plasma concentration ratio in Beagle dog at 0.08 to […], po measured up to 49 hrs; format: ADME, organism-based, Canis lupus familiaris; settings: CSF and plasma
[7] = Drug level in Crl:CD1(ICR) mouse brain at 1 mg/kg, po after 2 to 6 hrs; format: ADME, organism-based; settings: in vivo, read-out: Drug uptake
[8] = Fraction unbound in rat plasma after 24 hrs by equilibrium dialysis based LC-MS/MS analysis; format: ADME, cell-free
[9] = Clearance in Cynomolgus monkey at 0.5 mg/kg, iv by LC/MS/MS analysis; format: ADME, organism-based, Macaca fascicularis; settings: in vivo
[10] = Volume of distribution at steady state in Cynomolgus monkey at 0.5 mg/kg, iv by LC/MS/MS analysis; format: ADME, organism-based, Macaca fascicularis; settings: in vivo, read-out: Vdss
[11] = Half life in dog at 0.5 mg/kg, iv; format: ADME, organism-based, Canis lupus familiaris; settings: in vivo
[12] = Clearance in Sprague-Dawley rat at 0.5 mg/kg, iv by LC/MS/MS analysis; format: ADME, organism-based; settings: in vivo
Canis familiaris [13] = organism: Canis familiaris; assay: animal or person; format: functional, organism-based; settings: Canis lupus familiaris, Beagle
[14] = Fraction unbound in mouse plasma after 24 hrs by equilibrium dialysis based LC-MS/MS analysis; format: ADME, cell-free
[15] = Toxicity in po dosed Beagle dog assessed as induction of adverse effect administered for 2 weeks; format: organism-based, Canis lupus familiaris; settings: in vivo
[16] = Drug level in Crl:CD1(ICR) mouse brain at 3 mg/kg, po at 6 hrs; format: ADME, organism-based; settings: read-out: Drug uptake
[17] = Clearance in dog at 0.5 mg/kg, iv; format: ADME, organism-based, Canis lupus familiaris; settings: in vivo
[18] = Fraction unbound in mouse brain at 5 uM incubated for 5 hrs by HPLC-MS/MS analysis; format: ADME, tissue-based
[19] = Volume of distribution at steady state in Sprague-Dawley rat at 0.5 mg/kg, iv by LC/MS/MS analysis; format: ADME, organism-based; settings: in vivo, read-out: Vdss
[20] = Tmax in mouse at 2.5 mg/kg, po; format: ADME, organism-based; settings: in vivo
Beta-secretase 2 = target: T1, Beta-secretase 2 (Homo sapiens, UniProt Q9Y5Z0); assay: Inhibition of BACE2 (unknown origin) by HTRF assay
T1 sequence (Q9Y5Z0 whole entry): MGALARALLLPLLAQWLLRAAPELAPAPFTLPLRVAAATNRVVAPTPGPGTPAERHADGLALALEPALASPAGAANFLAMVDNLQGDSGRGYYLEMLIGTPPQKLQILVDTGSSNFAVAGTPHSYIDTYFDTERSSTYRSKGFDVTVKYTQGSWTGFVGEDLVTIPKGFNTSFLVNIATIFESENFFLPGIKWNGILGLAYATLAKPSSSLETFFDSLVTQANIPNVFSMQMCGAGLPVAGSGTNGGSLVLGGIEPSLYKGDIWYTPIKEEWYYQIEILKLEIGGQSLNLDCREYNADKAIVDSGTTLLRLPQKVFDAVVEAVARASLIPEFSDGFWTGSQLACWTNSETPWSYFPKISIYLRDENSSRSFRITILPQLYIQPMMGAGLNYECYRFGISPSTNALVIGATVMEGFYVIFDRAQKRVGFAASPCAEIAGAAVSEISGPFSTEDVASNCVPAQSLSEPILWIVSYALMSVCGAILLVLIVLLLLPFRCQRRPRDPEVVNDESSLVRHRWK

Canis familiaris [21] = assay: In vivo inhibition of BACE1 in po dosed Beagle dog assessed as reduction in amyloidbeta42 level in CSF measured after 4 to 49 hrs; format: functional, organism-based; settings: Canis lupus familiaris
[22] = Free drug level in Crl:CD1(ICR) mouse brain at 3 mg/kg, po at 6 hrs; format: ADME, organism-based; settings: in vivo
Mus musculus [23] = assay: In vivo inhibition of BACE1 in Crl:CD1(ICR) mouse assessed as reduction in amyloidbeta level in brain at 3 mg/kg, po after 2 to 6 hrs by ELISA relative to control; format: functional
[24] = Oral bioavailability in Sprague-Dawley rat at 2.5 mg/kg by LC/MS/MS analysis; format: ADME, organism-based; settings: in vivo
[25] = Fraction unbound in human plasma after 24 hrs by equilibrium dialysis based LC-MS/MS analysis; format: ADME, cell-free
[26] = AUC (0 to 24 hrs) in Sprague-Dawley rat at 250 mg/kg/day administered as suspension for 2 weeks; format: ADME, organism-based; parameters: dose 250 mg/kg/day, time < 24 hr; settings: in vivo
[27] = Oral bioavailability in Sprague-Dawley rat at 1 mg/kg by LC/MS/MS analysis; format: ADME, organism-based; settings: in vivo
[28] = Cmax in mouse at 2.5 mg/kg, po; format: ADME, organism-based; parameters: dose 2.5 mg/kg, route oral; settings: in vivo
[29] = Fraction unbound in monkey plasma after 24 hrs by equilibrium dialysis based LC-MS/MS analysis; format: ADME, cell-free, Macaca mulatta; settings: rhesus monkey
[30] = Metabolic stability in mouse hepatocytes at 2 uM incubated for 2 hr; format: ADME, cell-based, Hepatocyte; settings: read-out: Stability
[31] = AUC in Beagle dog at 6 mg/kg/day, po administered for 2 weeks; format: ADME, organism-based, Canis lupus familiaris; settings: in vivo
[32] = Half life in Sprague-Dawley rat at 0.5 mg/kg, iv by LC/MS/MS analysis; format: ADME, organism-based; settings: in vivo

**Q.** For `C[C@H]1SC(N)=N[C@](C)(c2cc(NC(=O)c3cnc(OCF)cn3)ccc2F)[C@H]1F`, which inhibition (Mus musculus [1]) is on record?
**A.** Dose-dependent effect

**Q.** What about the fraction unbound at 24 h [2] of the same molecule?
**A.** 0.078

**Q.** What about the Tmax [3] of the same molecule?
**A.** 3 h

**Q.** What about the half-life [4] of the same molecule?
**A.** 3.2 h

**Q.** What about the remaining at 2 h, 2 µM [5] of the same molecule?
**A.** 90%

**Q.** What about the Kp uu at 49 h [6] of the same molecule?
**A.** 0.77

**Q.** What about the concentration [7] of the same molecule?
**A.** 87 nM

**Q.** And the fraction unbound at 24 h [8]?
**A.** 0.12

**Q.** And the clearance [9]?
**A.** 23 mL/min/kg

**Q.** What about the Vd [10] of the same molecule?
**A.** 7 L/kg

**Q.** What about the half-life [11] of the same molecule?
**A.** 13.7 h

**Q.** And the clearance [12]?
**A.** 24.8 to 27 mL/min/kg

**Q.** And the EC50 (Canis familiaris [13])?
**A.** 1.8 nM

**Q.** What about the fraction unbound at 24 h [14] of the same molecule?
**A.** 0.15

**Q.** And the NOAEL at 336 h [15]?
**A.** 6 mg/kg/day

**Q.** What about the concentration at 6 h [16] of the same molecule?
**A.** 611 nM

**Q.** What about the clearance [17] of the same molecule?
**A.** 2.6 mL/min/kg

**Q.** What about the fraction unbound at 5 h, 5 µM [18] of the same molecule?
**A.** 0.034

**Q.** And the Vd [19]?
**A.** 5 L/kg

**Q.** And the Tmax [20]?
**A.** 0.3 h

**Q.** And the IC50 (Beta-secretase 2)?
**A.** 7.1 nM

**Q.** What about the inhibition (Canis familiaris [21]) of the same molecule?
**A.** Dose-dependent effect

**Q.** What about the “Drug uptake(free)” value [22] of the same molecule?
**A.** 73 nM

**Q.** What about the inhibition in vivo at 3 mg/kg (Mus musculus [23]) of the same molecule?
**A.** 90%

**Q.** What about the bioavailability [24] of the same molecule?
**A.** 38%

**Q.** What about the fraction unbound at 24 h [25] of the same molecule?
**A.** 0.083

**Q.** What about the AUC at 24 h [26] of the same molecule?
**A.** 68000 ng·h/mL

**Q.** And the bioavailability [27]?
**A.** 31%

**Q.** And the Cmax [28]?
**A.** 195 ng/mL

**Q.** And the fraction unbound at 24 h [29]?
**A.** 0.12

**Q.** What about the remaining at 2 h, 2 µM [30] of the same molecule?
**A.** 71%

**Q.** And the AUC at 336 h [31]?
**A.** 41000 ng·h/mL

**Q.** What about the half-life [32] of the same molecule?
**A.** 2.2 h

From ChEMBL document CHEMBL4321815, “Discovery of an Extremely Potent Thiazine-Based β-Secretase Inhibitor with Reduced Cardiovascular and Liver Toxicity at a Low Projected Human Dose” (J Med Chem, 2019)
